# Experimental data: US20050112123A1, “Methods of treating proteinuria” (priority 2003, published 2005)
# Tests used:
# [1] = test system: conditionally immortalized wild-type podocytes; assay: MTT proliferation assay, wild-type (WT) podocytes under growth restriction; assay type: cell-based, mouse
# Method: (§1) To test the hypothesis that ATRA altered the proliferative capacity of podocytes in HIV transgenic mice, conditionally immortalized podocytes harvested from transgenic HIV Tg-26 (Tg) and conditionally immortalized podocytes from transgene free or wild-type podocytes (controls) were compared in a series of studies. Both transgenic and wild-type cell lines were initially plated in “growth permissive” conditions (33° C.) and grown in 10 ml of “standard media,” consisting of 90% RPMI 1640 (Invitrogen, Grand Island, N.Y.), 10% fetal bovine serum (Hyclone, Logan, Utah), 1% L-glutamine (Irvine Scientific, Santa Ana, Calif.), 1% pen-strep (Biosource, Rockville, Md.), 1% sodium bicarbonate (Sigma-Aldrich, St Louis, Mo.) and 1% HEPES buffer (Sigma-Aldrich, Santa, Ana, Calif.), and 1% sodium pyruvate (Irvine Scientific, Santa Ana, Calif.). For growth promotion, 5 μl of mouse gamma interferon were added to 10 ml of media. […]
# (§2) Each study group was assessed for proliferation (see below) at three different time points as follows: (i) day “1” of growth restriction which was defined as 24 h after plating cells into growth restrictive conditions; (ii) day 7 of growth restrictive conditions. […]
# (§3) Cell proliferation was assessed by the MTT (Promega, Madison, Wis.) assay on days 1, 7, and 14 of growth restriction. […]
# mouse podocytes = assay: MTT cell proliferation assay, mouse podocytes; assay type: cell-based; conditions: at higher concentrations of ATRA than required with rat podocytes
# Method: Experiments were also performed on podocytes derived from C57/bl mice. Glomeruli were sieved and prepared as previously described. […] 61:40-50. Podocytes were grown on collagen 1 coated plates with MGEC-media containing 5% fetal bovine serum (FBS: Summit biotechnology, Ft. Collins, Colo., USA), penicillin (100 U/ml), streptomycin (100 μg/ml), and glutamine (2 mmol/L; all Irvine Scientific, Santa Ana, Calif., USA) at 37° C. in 95% air/5% CO2. Podocytes were identified by previously described criteria (Shankland et al. (1999) supra) and by confirming the presence of podocyte specific proteins—including WT-1, nephrin, podocin, and ezrin—by immunostaining.
# (§4) Exposure ofpodocvtes to ATRA. Rat podocytes, mouse podocytes, and growth permissive HSMP were plated at a concentration of 15,000 cell/cm^2 in standard media and allowed to adhere overnight.
# cultured rat podocytes = assay: Cell morphology by scanning electron microscopy, cultured rat podocytes; assay type: cell-based
# Method: as §4
# Cell morphology was carefully examined under light microscopy on an inverted scope. Cellular morphology was also examined by scanning electron microscopy on adherent cells fixed in half-strength Karnovsky's solution.
# podocytes = assay: Hoechst 33342 staining for apoptosis and binucleated cells; assay type: cell-based; conditions: at the concentrations of ATRA used in these experiments; statistically insignificant
# Method: To ensure that the anti-proliferative effects of ATRA were not confounded by podocyte apoptosis in podocytes or bi-nucleated cells, Hoechst 33342 (Molecular Probes, Eugene, Oreg., USA) staining was performed as previously reported. Hiromura et al. (1999) J Clin Invest 103:597-604. Careful morphological analysis was performed and the percentage of apoptotic cells was quantitated in adherent and non-adherent cells using inverted fluorescent microscopy as previously described. Hiromura et al. (1999) supra; and Mooney et al. (1997) J Immunol 159:3949-3960.
# rat podocytes = assay: MTT cell proliferation assay, rat podocytes
# [2] = test system: conditionally immortalized podocytes from transgenic HIV Tg-26; assay: MTT proliferation assay, HIV transgenic (Tg) podocytes under growth restriction; assay type: cell-based, mouse; conditions: 25 ATRA, FIG. 6
# Method: as §1, §2, §3
# [3] = test system: C57BL6 mice with anti-glomerular antibody-mediated podocyte injury; assay: Anti-glomerular antibody model of podocyte injury: renal function (proteinuria, BUN); assay type: in vivo, mouse; conditions: for BUN increase: anti-glomerular disease; for proteinuria vs control (vehicle): mice with anti-glomerular disease, ATRA 16.6 mg/kg IP daily, P<0.001, FIG. 3
# Method: An antibody-mediated model of podocyte injury was induced in C57BL6 mice with a sheep anti-glomerular antibody (two doses of 0.3 ml/20 gm body weight) over two consecutive days. Kim et al. (1999) Kidney Int 55:2349-2361; and Ophascharoensuk et al. (1998) Kidney Int 54:416-425. After the induction of the anti-glomerular model, but before the development of proteinuria, mice were then divided into an experimental group that received daily injections of ATRA 16.6 mg/kg (IP), and a control group that received vehicle (corn oil). Experimental and control animals were studied on day 7 and 14 (n=5 per group/time point). The podocyte specific proteins WT-1, nephrin, podocin, synaptopodin, were measured by immunostaining at each time point, as was the proliferation marker, PCNA (see above). Using proliferating cell nuclear antigen (PCNA) as a marker of proliferation and WT-1 as a marker for podocytes, the level of podocyte proliferation was determined.
# Renal Function Assessment. Control and experimental mice were placed in metabolic urine collection cages in order to obtain a timed collection for urinalysis. Urine was analyzed for protein content utilizing the sulphosalicylic acid (SSA) method as previously described. Shankland et al. (1996) Kidney Int. 50:116-124. Serum was also collected from mice in order to evaluate blood urea nitrogen (BUN) levels. The BUN kit (Sigma Chemicals, St. Louis, Mo., USA) is based on the direct interaction of urea with diacetyl monomoxime […]. The absorbance obtained from serum samples is compared with a standard curve of increasing concentrations of urea nitrogen standards.
compound,measurement,setting,value
"CC1=C(/C=C/C(C)=C/C=C/C(C)=C/C(=O)O)C(C)(C)CCC1 [ATRA, all-trans retinoic acid]","proliferation of WT podocytes (MTT), exposed to ATRA vs without ATRA",[1],no measurable difference
same,MTT absorbance,mouse podocytes,significantly reduced MTT absorbance
same,process formation (scanning electron microscopy),cultured rat podocytes; 1 μM ATRA,resulted in the presence of processes
same,process formation (scanning electron microscopy),cultured rat podocytes; Ten 1 μM ATRA,marked increase in the number and length of processes
same,cells undergoing apoptosis (Hoechst staining),podocytes,< 4 % of total cells
same,rat podocyte proliferation (viable cell number by MTT assay),"rat podocytes; 1 μM, 5 μM, 10 μM, 50 μM, 200 μM ATRA, FIG. 1",reduced rat podocyte proliferation in a concentration-dependent fashion
same,MTT absorbance compared to control cells,"rat podocytes; rat podocytes, beginning at one μM, P<0.001",significantly reduced MTT absorbance
same,reduction of proliferation of transgenic podocytes (MTT) compared to Tg podocytes without ATRA,"[2]; day 7 of growth restriction, p<.05",50%
same,reduction of proliferation of transgenic podocytes (MTT) compared to Tg podocytes without ATRA,"[2]; day 14 of growth restriction, p<0.005",25%
same,BUN increase,[3]; day 7,not altered
same,BUN increase,[3]; day 14,not altered
same,proteinuria vs control (vehicle),[3]; day 7,significantly reduced proteinuria
same,proteinuria vs control (vehicle),[3]; day 14,significantly reduced proteinuria
